From patent publication US12018058B2, “Compositions and methods for diagnosing and/or treating kidney injury” (Boston Medical Center Corporation, priority 2018, dated 2024)
Square brackets hold non-standard residues; d marks the D form. Peptide text beside a SMILES is read from it. βAla = NCCC(=O)O

Experiments:
NPM-Bax complex [1] = target: T1, NPM-Bax complex (Homo sapiens, UniProt P06748); assay: NPM-Bax interaction, active Bax immunoprecipitates from PTEC lysates after ATP depletion; assay type: cell-based; conditions: for Bax-NPM interaction in renal epithelial cells in vitro: PTEC, 60 min ATP depletion plus 30 min recovery, FIG. 9A
T1 construct: endogenous in cells; host or cells: primary human proximal tubule epithelial cells (PTEC), ATP-depleted
T1 sequence (P06748 whole entry, one chain of several): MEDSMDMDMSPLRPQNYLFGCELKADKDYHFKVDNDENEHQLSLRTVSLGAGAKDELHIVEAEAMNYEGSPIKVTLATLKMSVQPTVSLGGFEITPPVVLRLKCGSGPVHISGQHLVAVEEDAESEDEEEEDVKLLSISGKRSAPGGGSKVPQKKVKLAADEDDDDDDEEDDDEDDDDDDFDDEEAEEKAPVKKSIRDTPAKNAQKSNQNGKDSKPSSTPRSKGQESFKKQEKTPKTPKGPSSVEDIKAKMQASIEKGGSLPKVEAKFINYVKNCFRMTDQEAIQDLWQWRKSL
Experimental: Similar amounts of Bax were detected in each lane, and input protein amounts for each sample were identical. IB, immunoblot; IP, immunoprecipitation.
Cell, tissue, and urinary proteins were harvested using PD buffer containing 40 mM Tris-HCl, pH 8.0, 500 mM NaCl, 0.1% Nonidet P-40, 6 mM EGTA, and a protease inhibitor cocktail (Set I; Calbiochem, San Diego, CA). NPM was immunoprecipitated overnight with NPM antibodies (catalog no. B0556; Sigma-Aldrich) in the presence of protein A/G-agarose beads at 4° C. NPM accumulation was measured in cytosolic samples extracted with low-dose digitonin ([…]).13 Cytosolic proteins were extracted from renal cortical tissue samples using an extraction kit (Biochain Institute, Newark, CA). Briefly, 50-100 mg of kidney cortex tissue was minced on ice and spin washed with 1 ml ice-cold wash buffer before adding […] of buffer C. The mixture was rotated at 4° C. for 20 minutes and then centrifuged at 18,0003 g at 4° C. for 20 minutes before being harvested. Protein levels were measured with the bicinchoninic acid assay (Thermo Scientific, Rockford, IL).

[2] = test system: mice subjected to bilateral renal pedicle clamping; assay: Ischemic AKI by bilateral renal pedicle clamping (BUN, creatinine, survival); assay type: in vivo, C57BL/6J mice; conditions: for Renal function (serum BUN): days 1-7 post-ischemia, single i.v. dose 100 μg/g within 3 h after 28 min ischemia, versus control peptide; for Animals surviving severe ischemic AKI: single dose 0-3 hours after releasing clamps; for Animal deaths on day 1 post-AKI / Survival / Total deaths / Animal deaths on day 2 post-AKI / Animal deaths on day 3 post-AKI: n = 8; for Animal deaths on day 1 post-AKI / Animal deaths on day 2 post-AKI / Animal deaths on day 3 post-AKI: 28 min renal ischemia; for Survival: 7 d; for Total deaths: recorded for 7 d
Text: All animals were maintained under the guidance and policies of the Boston University Animal Core facility using National Institutes of Health (NIH) and Institutional Animal Care and Use Committee guidelines. Male and female C57BL/6J mice were purchased from Jackson Laboratory (Bar Harbor, ME), and they were housed and bred at the Boston University Animal Core facility under license number AN-15024. […] Animas were handled in a manner consistent with the NIH guide for their care and use under Institutional Animal Care and Use Committee approval.
Mice were subjected to bilateral renal pedicle clamping after being anesthetized with 2,2,2-tribromoethanol. […] 13,28,29 Slight variation in the clamp time was required to achieve similar degrees of renal dysfunction in the relatively large number of animals studied. The clamp was then removed, and reperfusion was confirmed by visual inspection of the kidneys. Sham ischemia was performed by encircling each renal pedicle with a nonocclusive ligature.
For in vitro testing in primary human PTECs, peptides ([…]) were tested that replicate the Bax domain responsible for binding NPM,34 or two peptides designed to interfere with NPM function were compared with a random nonspecific sequence of the same length (control). Peptides intended to interfere with NPM function overlap key phosphorylation sites located at the NPM amino terminus (peptide 2) or carboxy terminus (peptide 3) detected by mass spectrometry. To improve cell uptake, all peptides contained a cell-penetrating sequence13. For in vivo experiments, a renal-targeting sequence (NLS) was added to enhance renal peptide uptake.35 Peptides were commercially synthesized (Biomatik, Wilmington, DE) J Am Soc Nephrol 30: ccc-ccc, 2018 Nucleophosmin in AKI 3www.jasn.org BASIC RESEARCHas follows: NPM-Bax blocking peptide: Ac-KKKRKV-(bA)-[…]-COOH (SEQ ID NO: 8); peptide 2: AC-PKKKRKV-(bA)-[…]-COOH (SEQ ID NO: 9); and peptide 3: AC-PKKKRKV-(bA)-ESFKK-QEKTPKTPKGPSSVED-IKAK-COOH (SEQ ID NO: 10). […] A total of 42 control and 56 experimental animals were studied.
Transient exposure to metabolic inhibitors replicates ischemia in vivo by activating Bax and causing cell death.13,29,36-38 Cell viability was assayed using a modified colorimetric technique (MTTassay).37 The number of surviving cells is expressed as a percentage of viable control cells detected at baseline. Serum BUN and creatinine levels were measured in tail vein blood samples for 7 days after ischemia using QuantiChrom BUN or creatinine assay kits (BioAssay Systems, Hayward, CA) according to the manufacturer's instructions.

[3] = test system: mitochondrial Bax accumulation; assay: NPM and Bax accumulation in mitochondria isolated from PTEC after ischemic stress; assay type: cell-based; conditions: mitochondria isolated from human PTEC after ischemic stress
Text: (§1) NPM is a relevant therapeutic target in human AKI. Primary human proximal tubule epithelial cells (PTEC) derived from cadaveric kidneys were subjected to ischemic stress (transient ATP depletion) in the presence of specific NPM siRNA or non-sense siRNA. […] Thus, manipulating NPM is an effective maneuver. […] Small peptides of 30 amino acids or less are sufficiently specific to minimize off target effects and also reduce the risk of eliciting an antibody response that causes tachyphylaxis. Peptides were commercially synthesized and fused to a nuclear localizing sequence (this NLS has no functional relationship to the “NPM NLS” that regulates NPM translocation). The NLS-CPP markedly increases renal accumulation of small peptides8 as well as in the proximal tubule. […] To determine its effect on NPM-Bax complex formation, active Bax was immunoprecipitated from PTEC rendered ischemic with an antibody directed against the 6A7 epitope. The precipitates were subjected to immunoblot analysis using an anti-NPM antibody. […] NPM and Bax accumulation was measured in mitochondria isolated from human PTEC after ischemic stress. […] This is likely due to the prolonged half-life (about 80 hr) of the peptide in vitro and in vivo due to the presence of an AC modification slows degradation.

NPM-Bax complex [4] = assay: NPM-Bax complex formation, 6A7 Bax immunoprecipitation and NPM immunoblot in ischemic PTEC; assay type: cell-based; conditions: ischemic primary murine PTEC; compared to size matched random peptide
Text: as §1

[5] = 28 min bilateral pedicle clamping

SMILES: CC[C@H](C)[C@H](NC(=O)[C@@H](NC(=O)[C@H](CC(C)C)NC(=O)[C@H](CO)NC(=O)[C@H](C)NC(=O)[C@@H](NC(=O)[C@H](CC(C)C)NC(=O)[C@@H](NC(=O)CNC(=O)[C@H](C)NC(=O)[C@@H](NC(=O)[C@H](Cc1ccccc1)NC(=O)[C@@H](NC(=O)[C@@H](NC(=O)[C@@H](NC(=O)[C@@H](NC(=O)CCNC(=O)[C@@H](NC(=O)[C@H](CCCCN)NC(=O)[C@H](CCCNC(=N)N)NC(=O)[C@H](CCCCN)NC(=O)[C@H](CCCCN)NC(=O)[C@H](CCCCN)NC(C)=O)C(C)C)[C@@H](C)O)C(C)C)[C@@H](C)O)[C@@H](C)CC)C(C)C)C(C)C)[C@@H](C)O)[C@@H](C)O)C(=O)N[C@@H](Cc1c[nH]c2ccccc12)C(=O)N[C@@H](CCCCN)C(=O)N[C@@H](CCCCN)C(=O)N[C@@H](CCSC)C(=O)NCC(=O)O [Peptide #1] (Ac-KKKRKV[βAla]TVTIFVAGVLTASLTIWKKMG-OH)
- Decrease of NPM-Bax complex formation in vitro (NPM-Bax complex [1]; FIG. 9): about 50%
- Bax-NPM interaction in renal epithelial cells in vitro (NPM-Bax complex [1]): markedly decreases
- Bax-NPM interaction in renal epithelial cells in vitro (NPM-Bax complex [1]; listed as Blocking peptide): markedly reduced
- Bax-NPM interaction in renal epithelial cells in vitro (NPM-Bax complex [1]; listed as NPM-Bax blocking peptide (Peptide #1)): decreases
- Animals surviving ([2]; 22 min bilateral renal ischemia): 98%
- Animal survival [2, 5]: all survived
- Mean peak BUN [2, 5]: 100 m/dl
- Serum creatinine ([2]; day 1, peptide administered 3 hours after ischemia, versus control): significantly reduced
- Reduction of serum creatinine ([2]; day 1 post-ischemia, single dose after 28 min ischemia): ~50%
- Improvement of BUN ([2]; days 1-6, IV within 3 hr after 22 min bilateral renal ischemia, versus random peptide): 15-35%
- Renal function (serum BUN) ([2]; listed as Blocking peptide): significantly improved renal function
- Renal function (serum BUN) ([2]; listed as renal targeted peptide designed to interfere with Bax-NPM complex formation): significantly lower BUN levels
- Additional protection from higher or repeated dose ([2]; dose above 2 mg/animal (7 μM) or second dose within 24 hr, ischemic PTEC or mice): did not provide additional protection
- Protection against lethal renal ischemia (animal survival) ([2]; dose administered at 0, 1, 2 or 3 h post-ischemia, listed as Blocking peptide): significant protection
- Protection against lethal renal ischemia (animal survival) ([2]; dose administered at 0, 1, 2 or 3 h post-ischemia, listed as blocking peptide): for 7-d post-pedicle clamp release; no deaths were observed after 3 d. Significant protection
- Reduction of AKI severity ([2]; mice, administered before the insult): 40-50%
- Improvement of kidney function (reduced both BUN and creatinine) ([2]; mouse, in vivo): 50%
- Recovery of renal function ([2]; peptide-treated animals): complete
- Time recovery of renal function was sustained ([2]; peptide-treated animals): at least 4 weeks
- Protection against lethal renal ischemia (animal survival) ([2]; same dose administered 4, 5, or 6 h after ischemia, listed as Blocking peptide): no protection was observed
- Protection against lethal renal ischemia (animal survival) ([2]; same dose administered 4, 5, or 6 h after ischemia, listed as blocking peptide): 3 h post-AKI (P, 0.05); the blocking peptide was not protective if administered at 4, 5, or 6 h
- Animals surviving severe ischemic AKI ([2]; 28 min ischemia, listed as Blocking peptide): 88%
- Animals surviving severe ischemic AKI ([2]; 28 min ischemia, listed as NPM inhibitor peptide): 75%-88%
- Animal deaths on day 1 post-AKI ([2]; single dose 0 h post-AKI): 1
- Survival ([2]; single dose 0 h post-AKI): 88%
- Total deaths ([2]; single dose 0 h post-AKI): 1
- Animal deaths on day 1 post-AKI ([2]; single dose 1 h post-AKI): 1
- Animal deaths on day 2 post-AKI ([2]; single dose 1 h post-AKI): 1
- Survival ([2]; single dose 1 h post-AKI): 75%
- Total deaths ([2]; single dose 1 h post-AKI): 2
- Animal deaths on day 2 post-AKI ([2]; single dose 2 h post-AKI): 1
- Survival ([2]; single dose 2 h post-AKI): 88%
- Total deaths ([2]; single dose 2 h post-AKI): 1
- Animal deaths on day 2 post-AKI ([2]; single dose 3 h post-AKI): 1
- Survival ([2]; single dose 3 h post-AKI): 88%
- Total deaths ([2]; single dose 3 h post-AKI): 1
- Animal deaths on day 1 post-AKI ([2]; single dose 4 h post-AKI): 1
- Animal deaths on day 2 post-AKI ([2]; single dose 4 h post-AKI): 4
- Animal deaths on day 3 post-AKI ([2]; single dose 4 h post-AKI): 3
- Survival ([2]; single dose 4 h post-AKI): 0%
- Total deaths ([2]; single dose 4 h post-AKI): 8
- Animal deaths on day 1 post-AKI ([2]; single dose 5 h post-AKI): 1
- Animal deaths on day 2 post-AKI ([2]; single dose 5 h post-AKI): 6
- Survival ([2]; single dose 5 h post-AKI): 13%
- Total deaths ([2]; single dose 5 h post-AKI): 7
- Animal deaths on day 1 post-AKI ([2]; single dose 6 h post-AKI): 1
- Animal deaths on day 2 post-AKI ([2]; single dose 6 h post-AKI): 4
- Animal deaths on day 3 post-AKI ([2]; single dose 6 h post-AKI): 2
- Survival ([2]; single dose 6 h post-AKI): 13%
- Total deaths ([2]; single dose 6 h post-AKI): 7
- Animal survival ([2]; single dose within 3 hours postischemia, 28 min ischemia, versus control): dramatically improved animal survival
- Mitochondrial Bax and NPM accumulation [3]: decreased mitochondrial Bax accumulation to a greater extent than it reduced NPM accumulation
- Decrease of NPM-Bax complex formation (NPM-Bax complex [4]): about 50%
